Data reported in patent publication US20060063244A1, “Methods and composition for the production of orthogonal tRNA-aminoacyltRNA synthetase pairs” (The Scripps Research Institute, priority 2001, published 2006).
Positions count from the first letter of the chain named. Names may count otherwise.

Assays:
Escherichia coli = assay: Effect on growth of Escherichia coli host cells; type: cell-based; conditions: 1 mM added to medium
mutant TyrRS = molecular target: T1, mutant TyrRS (Methanocaldococcus jannaschii, UniProt Q57834, D158A/E107T/L162P/N268S/Y32Q); assay: Pyrophosphate-exchange assay of adenylate formation; type: biochemical, Methanococcus jannaschii
T1 construct: His6 (C); made in house
T1 sequence (Q57834 whole entry Y32Q/E107T/D158A/L162P/N268S): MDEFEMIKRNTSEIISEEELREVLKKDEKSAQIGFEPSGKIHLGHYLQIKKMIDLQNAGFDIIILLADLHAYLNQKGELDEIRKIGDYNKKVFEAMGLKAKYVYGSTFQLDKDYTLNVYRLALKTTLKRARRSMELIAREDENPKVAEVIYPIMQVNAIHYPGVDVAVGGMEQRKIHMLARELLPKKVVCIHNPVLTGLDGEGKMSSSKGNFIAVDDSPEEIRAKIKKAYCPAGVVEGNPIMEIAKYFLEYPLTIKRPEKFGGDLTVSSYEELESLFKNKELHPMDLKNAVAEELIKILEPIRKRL
Procedure: (§1) Kinetics of adenylate formation of O-methyl-L-tyrosine and tyrosine with adenosine triphosphate (ATP) catalyzed by the mutant TyrRS were analyzed in vitro using a pyrophosphate-exchange assay at 37° C. For example, the mutant TyrRS gene with six histidines at its C-terminus was cloned into plasmid pQE-60 (Qiagen, CA) to generate plasmid pQE-mJYRS. Protein was purified by immobilized metal affinity chromatography according to manufacture's protocol (Qiagen, CA). Pyrophosphate (PPi) exchange was carried out at 37° C. in a reaction mixture containing 100 mM TrisHCl (pH7.5), 10 mM KF, 5 mM MgCl2, 2 mM ATP, 2 mM NaPPi, 0.1 mg/mL bovine serum albumin, approximately 0.01 μCi/μL [^32P]NaPPi, and various concentrations of tyrosine or O-methyl-L-tyrosine. Reactions were initiated with the addition of the purified mutant TyrRS, and aliquots were periodically taken and quenched with 0.2 M NaPPi, 7% perchloric acid, and 2% activated charcoal. The charcoal was filtered and washed with 10 mM NaPPi (pH2), then measured by scintillation counting to determine the ^32P levels in charcoal-adsorbed ATP. Values of kcat and Km were calculated by direct fitting of the Michaelis-Menten equation using nonlinear regression analysis.

amber nonsense codon = assay: Fidelity of translation by analysis of dihydrofolate reductase containing the unnatural amino acid; type: cell-based, Escherichia coli; conditions: incorporation in response to amber nonsense codon
Description: A unique transfer RNA (tRNA)-aminoacyl tRNA synthetase pair has been generated that expands the number of genetically encoded amino acids in Escherichia coli. When introduced into Escherichia coli, this pair leads to the in vivo incorporation of the synthetic amino acid O-methyl-L-tyrosine, added exogenously to the growth medium, into protein in response to an amber nonsense codon. The fidelity of translation is greater than 99%, as determined by analysis of dihydrofolate reductase containing the unnatural amino acid. This approach provides a general method for increasing the genetic repertoire of living cells to include a variety of amino acids with novel structural, chemical and physical properties not found in the common twenty amino acids.

[1] = tested on: COc1ccc(C[C@H](N)C(=O)O)cc1; assay: Pyrophosphate-exchange assay of adenylate formation; type: biochemical, Methanococcus jannaschii; conditions: other: mutant TyrRS, 37° C.
Procedure: as §1

[2] = tested on: N[C@@H](Cc1ccc(O)cc1)C(=O)O; assay: as above; type: biochemical, Methanococcus jannaschii; conditions: other: mutant TyrRS, 37° C.
Procedure: as §1

[3] = tested on: yeast PheRS / Escherichia coli PheRS; conditions: cited from earlier work
E. coli cells = assay: LC/MS analysis of toluenized E. coli cells grown with unnatural amino acid; type: cell-based; conditions: E. coli grown in the presence of the amino acid
Description: Generality of aminoacyl tRNA synthetase evolution. […] The enzyme can be evolved to accommodate a variety of functionalities in place of the phenol side chain of tyrosine and can do so with high selectivity. […] It was not possible to identify an enzyme variant that could accept the pCF unnatural amino acid. A second attempt to evolve a synthetase to accept the pCF amino acid was also unsuccessful.

[4] = tested on: valine position in the native protein; conditions: edit-defective ValRS strain grown with Abu; cited from earlier work
[5] = tested on: Escherichia coli total tRNA / purified tRNA from Halobacterium; assay: In vitro aminoacylation by archaeal leucyl-tRNA synthetases; type: biochemical
Procedure: The next step involved determination of a synthetase that charges the suppressor tRNA without interacting with host tRNA. The two chosen systems, Methanobacterium thermoautotrophicum and Methanococcus jannaschii were expressed, and aminoacylation was performed in vitro on purified tRNA from Halobacterium as a positive control, and for Escherichia coli total tRNA.

[6] = In vitro aminoacylation with leucine and methionine by editing-domain mutants of Methanobacterium thermoautotrophicum RS; type: biochemical
Description: Next, point mutations were made in the editing domain. The catalytic core of the editing domain is well conserved across species and even for different amino acids, at least for the family of branched chain amino acids. Several of these conserved sites have previously been mutated, for example a T→P mutation, and found to knock out editing function. Mutants of Methanobacterium thermoautotrophicum RS were constructed that were similar to several known mutants, and also a 20 member NNK library derived from T214 was made. Proteins were expressed and examined in vitro for aminoacylation with leucine and methionine. None of the previously identified mutations were transferable to our system, but a desirable mutation was identified from the T214 library.

## COc1ccc(C[C@H](N)C(=O)O)cc1 [O-methyl-L-tyrosine]
Escherichia coli
  effect on growth rate of Escherichia coli: does not significantly affect the growth rate
Mutant TyrRS
  kcat/Km relative to tyrosine: about 100 fold
Amber nonsense codon
  fidelity of translation: greater than 99%

## mutant TyrRS (Methanocaldococcus jannaschii DSM 2661; D158A/E107T/L162P/N268S/Y32Q)
[1]
  Km: 0.443 ± 0.093 mM
  kcat: 14±1×10^−3 s^−1
[2]
  Km: 5.833 ± 0.902 mM
  kcat: 1.8±0.2×10^−3 s^−1

## N[C@@H](Cc1ccc(O)cc1)C(=O)O [tyrosine]
Mutant TyrRS
  Km relative to O-methyl-L-tyrosine: approximately 13 fold
  kcat relative to O-methyl-L-tyrosine: eight fold less

## N[C@@H](Cc1ccc(F)cc1)C(=O)O [p-F-Phe, p-fluorophenylalanine]
[3]
  share found at the Phe codon positions: 7%
[3]; excess p-F-Phe in growth media
  share at the mutagenesis site: 64-75%

## N[C@@H](Cc1ccc(C(=O)O)cc1)C(=O)O [pCF, p-Carboxyl-Phenylalanine]
E. coli cells
  detection in cells by LC/MS: could not be detected

## CCC(N)C(=O)O (centres unmarked) [Abu, aminobutyrate]
[4]
  valines replaced at each valine position: about 24%

B1: Methanococcus jannaschii synthetase: leucyl tRNA synthetase cloned from Methanococcus jannaschii (protein, UniProt Q58050 1-942, looked up)
Leucine--tRNA ligase: MMVMIDFKEIEKKWQKRWEEAKIFEANPDDREKFFITAAFPYLNGVLHAGHLRTFTIPEVVARFQRMKNKNVLWTFGYHVTGTPILGLAELIKNRDEKTIWAYTELHGIPKEELLELTTPEKIVEYFSKKAEEAFKRMGFSLDWRRNFKTDDKVFNKFIEWQFHKLKEKGLIVKGSHPVRYCPRCDNPVEDHDILVGENATLVEYILIKFTTEDGCIMPMATLRPETVFGVTNVWVNPEATYVKAKVYLEKETENGIELIENGIWIMAKECAEKLKHQDRKIEIIEEFKGEQLINKKVKNPVTGKEVPILPAKFVKTNIGTGCVMSVPAHAPYDYIALRDLGLVDEIGLIPLINVPGYGKYPAKEIVEKMGIKSQEEEDKLEEATKKIYKDEFHKGVLNENCLDYEGIPVREIKDKLTKDLIDKGLAEIMYEFSEEKVICRCGTPCIVKMVKGQWFIKYSDEKWKELAHKCIDKMRFIPENLRQVFHEKIDWMKDKACVRRRGLGTKFPFEEGWVIESLSDSTIYPAYYTVAKYINQHNIKPEQLTLELFDYVFLGKGDVDKIAKETGIPKDIIEGMRKEFIYYYPVDWRCSAKDLIPNHLTFYIFNHVAIFPEEFWPRGIVVNGYVTIEGKKLSKSKGPVLPVLEVAEKFGADVGRFYITTCAELPQDADIKFKEMENTKKVLERLYLFAKEIAERRGETGEEFSYIDKWLLSRLYKAVKQYDEYMENFELRKAGILLYQLLDDLKWYRRRGGNNIRVLEEFLEVIIKLMMPFTPHLCEEMWEILGKEGFVSLAKFPEVKEEFINDEIEKGEEYLKAVMEDIKEIINVAKVQPKRIYLYTADDWKYEILKIIKENEGKTIKELMPIIMKNPEFRKYGKEIPKLVNQLIKLNAEIINEVEVLENAKEFLKKEVGVEDIIINGEDKANKKRVAIPFKPAIYLE
[5]
  charging of Escherichia coli total tRNA versus Halobacterium tRNA: able to effectively charge Escherichia coli tRNA

B2: Methanobacterium thermoautotrophicum synthetase: leucyl-tRNA synthetase from Methanobacterium thermoautotrophicum (protein, UniProt O27552 1-937, looked up)
Leucine--tRNA ligase: MDIERKWRDRWRDAGIFQADPDDREKIFLTVAYPYPSGAMHIGHGRTYTVPDVYARFKRMQGYNVLFPMAWHVTGAPVIGIARRIQRKDPWTLKIYREVHRVPEDELERFSDPEYIVEYFSREYRSVMEDMGYSIDWRREFKTTDPTYSRFIQWQIRKLRDLGLVRKGAHPVKYCPECENPVGDHDLLEGEGVAINQLTLLKFKLGDSYLVAATFRPETIYGATNLWLNPDEDYVRVETGGEEWIISRAAVDNLSHQKLDLKVSGDVNPGDLIGMCVENPVTGQEHPILPASFVDPEYATGVVFSVPAHAPADFIALEDLRTDHELLERYGLEDVVADIEPVNVIAVDGYGEFPAAEVIEKFGVRNQEDPRLEDATGELYKIEHARGVMSSHIPVYGGMKVSEAREVIADELKDQGLADEMYEFAERPVICRCGGRCVVRVMEDQWFMKYSDDAWKDLAHRCLDGMKIIPEEVRANFEYYIDWLNDWACSRRIGLGTRLPWDERWIIEPLTDSTIYMAYYTIAHRLREMDAGEMDDEFFDAIFLDDSGTFEDLREEFRYWYPLDWRLSAKDLIGNHLTFHIFHHSAIFPESGWPRGAVVFGMGLLEGNKMSSSKGNVILLRDAIEKHGADVVRLFLMSSAEPWQDFDWRESEVIGTRRRIEWFREFGERVSGILDGRPVLSEVTPAEPESFIGRWMMGQLNQRIREATRALESFQTRKAVQEALYLLKKDVDHYLKRVEGRVDDEVKSVLANVLHAWIRLMAPFIPYTAEEMWERYGGEGFVAEAPWPDFSDDAESRDVQVAEEMVQNTVRDIQEIMKILGSTPERVHIYTSPKWKWDVLRVAAEVGKLDMGSIMGRVSAEGIHDNMKEVAEFVRRIIRDLGKSEVTVIDEYSVLMDASDYIESEVGARVVIHSKPDYDPENKAVNAVPLKPAIYLE
[5]
  charging of Escherichia coli total tRNA versus Halobacterium tRNA: specific towards the Halobacterium tRNA

B3: T214Q: editing-domain point mutant of Methanobacterium thermoautotrophicum leucyl-tRNA synthetase (protein, UniProt O27552 1-937, looked up, variant T214Q)
Leucine--tRNA ligase: B2 Leucine--tRNA ligase with T214Q
[6]
  charging with leucine: capable of charging with leucine
  charging with methionine: capable of charging methionine
